Measured values published in US11964984B2, “TXNIP-TRX complex inhibitors and methods of using the same” (CITY OF HOPE, priority 2020, dated 2024).

Experiments:
TXNIP mRNA = TXNIP mRNA expression in THP1 cells under 25 mM glucose (RT-PCR); format: cell-based, human
Experimental: FIGS. 2A-2B. FIG. 2A: C30 and C38 inhibited TXNIP mRNA expression in THP1 cells. THP1 cells were cultured under 25 mM glucose with the indicated concentrations of compounds for 72 hours. Cells were then collected for total RNA preparation. RT-PCR was performed, and data shown are the mean±SEM from triplicates. Statistical analysis was performed using one-way ANOVA, *p<0.0001. FIG. 2B: C30 and C38 inhibited TNF-α mRNA expression in THP1 cells. THP1 cells were cultured under 25 mM glucose with various concentrations of compounds as indicated for 72 hours and collected for total RNA preparation. RT-PCR was performed, and data shown are the mean±SEM from triplicates. Statistical analysis was performed using one-way ANOVA: *<0.02; **<0.0001.
FIG. 6. C38 analogues effects on TXNIP mRNA expression in THP1 cells. THP1 cells were cultured under 25 mM glucose with 2.5 uM of compounds for 72 h. Total RNA was collected. RT-PCR was performed in triplicate and data shown are the mean±SEM. Statistical analysis was performed using one-way ANOVA: *p<0.0001.
FIG. 7. C38 and analogue E2 effects on TXNIP mRNA levels in THP cells. THP1 cells were cultured under 25 mM glucose with several concentration of C38 and E2 as indicated for 72 hours. Total RNA was prepared. RT-PCR was performed in triplicate and data shown are the mean±SEM. Statistical analysis was performed for each column vs. without compound control using one-way ANOVA: *p<0.0001.
C30 and C38 inhibited TXNIP mRNA expression in THP1 cells.
Discovery of lead compound analogues. A search of chemical libraries was performed in the interest of identifying possible lead compound analogues. Analogues to C38 were identified. To determine the properties of the analogues, we treated THP1 cells with the E batch compounds for three days, prepared RNA and measured TXNIP mRNA levels.
RNA extraction and quantitative RT-PCR. RNA was extracted using the Direct-zol™ RNA MiniPrep Plus (Zymo Research). Reverse transcription of RNA samples into cDNA was performed using the GeneAmp RNA PCR Kit (Applied Biosystems), dNTP (from Roche Applied Science), Rnase inhibitor, MULV Reverse Transcriptase and Random hexamers reagent (all from Invitrogen). Diluted cDNA was quantified using real-time PCR performed with Power SYBR Green qPCR MasterMix (Applied Biosystem) and 7500 real-time PCR system (Applied Biosystems). The HPRT1 gene was used as an internal control.

TXNIP = details: literature (Nature Med. 2018); cited from earlier work

| Structure (SMILES) | TXNIP mRNA expression (C38 analogues screen) (TXNIP mRNA; 2.5 uM compound, 72 h) | TXNIP mRNA levels, E2 compared with C38 (TXNIP mRNA; several concentrations, 72 hours) | expression of TXNIP (TXNIP) |
| --- | --- | --- | --- |
| COc1ccc(CCNc2ncnc3c2oc2ccccc23)cc1OC [Compound E2] | strongly inhibited TXNIP mRNA expression | moderately better than C38 |  |
| COc1ccc(CCN(C)CCCC(C#N)(c2ccc(OC)c(OC)c2)C(C)C)cc1OC (stereo not drawn) [Verapamil] |  |  | inhibit the expression of TXNIP |
